From patent US20100137146A1, “Method of Screening Antibacterial Drug Compounds” (Temasek Lifesciences Laboratory, priority 2006, published 2010)

Key:
MreB = biological target: T1, MreB (Escherichia coli, UniProt P0A9X4); assay type: cell-based, E. coli
T1 construct: the protein is expressed as a fusion of the full-length bacterial protein with a reporter; expressed in transfected cells; host or cells: Schizosaccharomyces pombe (pREP42-gfp-mreB, nmt42 promoter)
Procedure: GFP-MreB and FtsZ-GFP were expressed in S. pombe by growing the transformed cultures in the absence of thiamine for 16-20 hours. In the case of fission-yeast temperature-sensitive mutants carrying the GFP-MreB plasmid, cultures were grown in the absence of thiamine for 25-30 hours at 24° C. to allow sufficient expression of the protein. However, prior to the formation of MreB-polymers, the cultures were shifted to restrictive temperatures for a period of 4 hours. The cells were subsequently fixed and stained for actin or tubulin.
The cells were-either fixed with formaldehyde 0.7%) or observed live under a fluorescence microscope. Inhibition of MreB polymerization was achieved by the addition of A22 at a final concentration of 50 μg/ml after 14-16 hours of growth in the absence of thiamine. Cultures were allowed to grow further for a period of 6-8 hours before washing of A22 for time-lapse microscopy. The cells were mounted onto agarose slides, and images were acquired at fixed time intervals. Immunofluorescence was carried out as described in Balasubramanian et al., Meth. Enzymol. 283:494-495, 1997.
Next, whether MreB polymerization in fission yeast was mechanistically related to its polymerization in bacteria was assessed. Studies in bacteria have shown that the small molecule A22 affects the polymerization and/or maintenance of MreB polymers. To test whether A22 prevents polymerization of MreB in fission yeast, cells were treated with A22 prior to the induction of MreB expression. Cells expressing GFP-MreB were treated with the MreB-inhibitor A22 (0 minute time point) at a concentration of 50 μg/ml. The drug then was washed out, and cells were imaged by time-lapse microscopy.
To this end, cells containing preformed MreB bundles were treated with A22.

F-actin = biological target: T2, F-actin (Schizosaccharomyces pombe, UniProt P10989); assay: F-actin staining (rhodamine-conjugated phalloidin) in S. pombe cells expressing GFP-MreB; assay type: cell-based; details: LatA 20 μg/ml for 10 minutes
T2 construct: endogenous in cells; host or cells: Schizosaccharomyces pombe cells expressing GFP-MreB
Procedure: S. pombe cells expressing GFP-MreB were fixed with methanol and incubated with tubulin (1:100) antibodies. Mouse secondary antibodies conjugated to Alexa-594™ were used at 1:400 for visualizing tubulin. For actin staining, cultures were fixed with formaldehyde (3.7%) and permeablized by using 1% Triton-X 100 in PBS. Rhodamine-conjugated phalloidin was used to visualize S. pombe actin. Latrunculin A (LatA) was added at a final concentration of 20 μg/ml for 10 minutes, and methyl 1-(butylcarbanoyl)-2-benzimidazolecarbamate (MBC) was added at a 25 μg/ml for 20 minutes. For methods, see Karagiannis et al., Mol. Biol. Cell 16:358-371, 2005 and Sawin et al., J. Cell Sci. 117:689-700, 2004, the disclosures of which are hereby incorporated by reference. For time-lapse imaging, LatA and MBC were included simultaneously in the agarose pads. […] Pictures were obtained with a CCD camera (CoolSnapHQ™, Photometrics™). The images were acquired and processed with Meta-morph™.
Studies therefore were performed to determine whether MreB assembly and maintenance was dependent on F-actin and microtubules. Cells were grown in the absence of thiamine to allow expression GFP-MreB. Cultures were then treated with LatA (20 μg/ml) for 10 minutes or methyl 1-butylcarbamoyl-2-benzimidazolecarbamate MBC (25 μg/ml) for 20 minutes to disrupt F-actin and microtubule, respectively. […]

GFP-MreB D165E = GFP-MreB D165E (Escherichia coli, UniProt P0A9X4, D165E); details: GFP-MreB D165E in wild type fission yeast
Excerpt: (§1) The MreB ATPase mutants were generated by overlap PCR with the following mutagenic primers: MOH2516 and MOH2517 for E143A and MOH2512 and MOH2513 for D165E along with the above-mentioned end primers (MOH2413 and MOH2414). The GFP-MreB mutants were all cloned into pREP42. All plasmids and mutations were verified by sequencing.
(§2) In bacteria, mutations in the vicinity of the ATP binding pocket of MreB confer A22 resistance. […] Plasmids expressing GFP-MreB E143A (see Garner et al., Science 306:1021-1025, 2004) or D165E (see Kruse et al., EMBO J. 22:5283-5292, 2003) were introduced into wild type fission yeast cells. Cultures were grown in the absence of thiamine to induce the expression of GFP fusion proteins. […] See FIGS. 15A (E143A) and 15B (D165E).

GFP-MreB E143A = GFP-MreB E143A (Escherichia coli, UniProt P0A9X4, E143A); details: GFP-MreB E143A in wild type fission yeast
Excerpt: as §1, §2

T1 sequence (P0A9X4 whole entry, the tested form may be a part): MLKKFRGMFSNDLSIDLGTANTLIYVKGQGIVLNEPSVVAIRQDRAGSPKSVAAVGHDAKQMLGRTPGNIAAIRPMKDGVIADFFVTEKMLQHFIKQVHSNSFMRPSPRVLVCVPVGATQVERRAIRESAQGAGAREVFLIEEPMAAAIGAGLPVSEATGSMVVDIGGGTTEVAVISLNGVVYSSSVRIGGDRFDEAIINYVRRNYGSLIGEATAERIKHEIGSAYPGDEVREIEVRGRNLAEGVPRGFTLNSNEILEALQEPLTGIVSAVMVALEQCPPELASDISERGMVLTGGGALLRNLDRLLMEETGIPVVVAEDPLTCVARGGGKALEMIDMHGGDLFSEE
Sequence of GFP-MreB D165E (P0A9X4 whole entry D165E): as the sequence (P0A9X4 whole entry, the tested form may be a part) above, with D165E counted along it
Sequence of GFP-MreB E143A (P0A9X4 whole entry E143A): as the sequence (P0A9X4 whole entry, the tested form may be a part) above, with E143A counted along it

C/C1=C/C(=O)O[C@@H]2C[C@@H](CC[C@H](C)/C=C\C=C\CC1)O[C@@](O)([C@@H]1CSC(=O)N1)C2 [LatA, Latrunculin A]
Maintenance of MreB bundles (MreB; LatA 20 μg/ml for 10 minutes): remained unperturbed | MreB nucleation and assembly after A22 washout (MreB; simultaneous presence of LatA (20 μg/ml) and MBC (25 μg/ml) in agarose pads): MreB nucleated and assembled into polymers | Effect on average growth rate of MreB bundles (MreB; simultaneous presence of LatA and MBC, rate without them 0.46±0.03 μm/min (n=44)): did not vary significantly | Disruption of F-actin (F-actin): completely disassembled

N=C(N)SCc1ccc(Cl)c(Cl)c1 [A22]
MreB polymerization in fission yeast (MreB; A22 50 μg/ml, S. pombe cells expressing GFP-MreB, 0 minute time point before washout): did not exhibit MreB polymers | Reversibility of the effect on MreB polymerization (MreB; after removal of A22 (50 μg/ml), MreB filaments re-established at 20 minutes): reversible | Severing and/or disassembly of preformed MreB bundles (MreB; cells with prominent GFP-MreB bundles cultured 1 hour with A22): pre-existing bundles were unaffected | Structures assembled by MreB ATPase mutant, sensitivity to A22 (GFP-MreB D165E): assembled similar structures both in the presence and absence of A22 | Structures assembled by MreB ATPase mutant, sensitivity to A22 (GFP-MreB E143A): assembled similar structures both in the presence and absence of A22
